Assay [1] addresses T1, follicle-stimulating hormone (FSH) receptor (Rattus norvegicus, UniProt P20395).
T1 construct: endogenous in cells; host or cells: rat granulosa cells
T1 sequence (P20395 18-692): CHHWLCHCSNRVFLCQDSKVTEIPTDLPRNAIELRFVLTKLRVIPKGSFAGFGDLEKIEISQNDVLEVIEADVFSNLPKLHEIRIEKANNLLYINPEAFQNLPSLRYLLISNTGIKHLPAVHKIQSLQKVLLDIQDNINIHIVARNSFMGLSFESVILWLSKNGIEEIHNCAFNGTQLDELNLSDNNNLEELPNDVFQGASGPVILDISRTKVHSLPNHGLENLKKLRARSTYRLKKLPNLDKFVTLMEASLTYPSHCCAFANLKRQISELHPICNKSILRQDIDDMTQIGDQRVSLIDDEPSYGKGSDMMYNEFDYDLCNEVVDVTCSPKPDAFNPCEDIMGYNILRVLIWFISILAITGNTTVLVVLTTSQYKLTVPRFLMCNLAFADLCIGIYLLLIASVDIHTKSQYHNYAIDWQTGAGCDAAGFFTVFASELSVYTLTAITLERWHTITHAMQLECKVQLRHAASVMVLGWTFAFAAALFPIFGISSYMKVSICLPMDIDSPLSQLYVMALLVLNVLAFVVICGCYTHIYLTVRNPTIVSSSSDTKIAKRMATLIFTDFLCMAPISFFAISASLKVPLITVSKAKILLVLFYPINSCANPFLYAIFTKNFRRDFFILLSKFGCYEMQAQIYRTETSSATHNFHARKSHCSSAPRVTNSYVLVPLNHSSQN
In words: Rat granulosa EC50 FSH (Assay B). The class given is cell-based. As to the method: Example 25. Rat granulosa EC50 FSH (Assay B)
The assay was performed pursuant to the teaching of Yanofsky et al. (2006) Allosteric activation of the follicle-stimulating hormone (FSH) receptor by selective, nonpeptide agonists (JBC 281(19): 13226-13233, which is incorporated by reference in the disclosure of the invention).

The target of another assay is T2, FSHR (Homo sapiens, UniProt P23945).
T2 construct: expressed in transfected cells; host or cells: CHO (Cho-FSHR-LUC-1-1-43)
T2 sequence (P23945 18-695): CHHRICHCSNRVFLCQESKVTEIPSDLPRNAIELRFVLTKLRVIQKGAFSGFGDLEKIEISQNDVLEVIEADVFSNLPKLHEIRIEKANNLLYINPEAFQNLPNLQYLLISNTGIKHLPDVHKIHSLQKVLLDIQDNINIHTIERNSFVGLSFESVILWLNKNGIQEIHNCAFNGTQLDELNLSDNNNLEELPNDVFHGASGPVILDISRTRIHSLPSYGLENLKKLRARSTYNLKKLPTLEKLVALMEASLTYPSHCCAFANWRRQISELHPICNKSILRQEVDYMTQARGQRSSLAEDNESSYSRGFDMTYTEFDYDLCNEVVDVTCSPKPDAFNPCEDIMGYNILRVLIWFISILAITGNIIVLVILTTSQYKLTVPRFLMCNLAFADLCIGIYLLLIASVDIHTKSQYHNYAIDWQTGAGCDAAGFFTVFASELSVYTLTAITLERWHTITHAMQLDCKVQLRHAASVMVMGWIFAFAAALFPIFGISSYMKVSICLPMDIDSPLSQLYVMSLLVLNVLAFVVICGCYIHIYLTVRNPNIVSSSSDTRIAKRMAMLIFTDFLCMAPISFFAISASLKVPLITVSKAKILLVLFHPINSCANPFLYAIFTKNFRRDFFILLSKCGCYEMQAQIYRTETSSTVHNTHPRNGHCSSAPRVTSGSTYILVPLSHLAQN
Kind of assay: EC50 of cyclic AMP production in CHO FSHR cells + EC20 FSH (Assay A). It counts as cell-based. Particulars: cyclic AMP production in CHO FSHR cells + EC20 FSH (0.265 pM), HTRF. Put shortly: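 CHO cells expressing FSHR, stimulated 1 h at 37° C with compound plus EC20 FSH (0.265 pM final) and 200 μM IBMX. cAMP measured by HTRF (665/620 nm ratio) after 1 h at room temperature; effect expressed relative to maximum response of FSH standard.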
A general note: In TR-FRET formats the signal depends on donor and acceptor labels being close together.

The EC50 is the concentration needed to bring the measured effect to its halfway point. Take `COc1cc(-c2cc3c(cc2OC)OCc2c(C(=O)N(C)C(C)(C)C)nn(-c4cc(Cl)cc(Cl)c4)c2-3)cc(C(N)=O)n1` [Compound 117, N-tert-butyl-8-(2-carbamoyl-6-methoxypyridin-4-yl)-1-(3,5-dichlorophenyl)-7-methoxy-N-methyl-1,4-dihydrochromeno[4,3-c]pyrazole-3-carboxamide]: the EC50 in assay [1] was 10 to 100 nM; on FSHR, less than 10 nM.
For the compound `COc1cc2c(cc1-c1ccn(C)n1)-c1c(c(C(=O)N3CCOCC3(C)C)nn1-c1cc(F)cc(F)c1)CO2` [Compound 51, (1-(3,5-difluorophenyl)-7-methoxy-8-(1-methyl-1H-pyrazol-3-yl)-1,4-dihydrochromeno[4,3-c]pyrazol-3-yl)(3,3-dimethylmorpholino)methanone], the 50% effective concentration (EC50) in assay [1] fell in the range of 101 to 500 nM; on FSHR it was 10 to 100 nM.
For `CCN(C(=O)c1nn(-c2cc(Cl)cc(Cl)c2)c2c1COc1cc(OC)c(-c3ccn(C)n3)cc1-2)S(=O)(=O)CC` [Compound 188, 1-(3,5-dichlorophenyl)-N-ethyl-N-(ethylsulfonyl)-7-methoxy-8-(1-methyl-1H-pyrazol-3-yl)-1,4-dihydrochromeno[4,3-c]pyrazole-3-carboxamide], the EC50 is 101 to 500 nM in assay [1] and less than 10 nM at FSHR.
In the case of `CCOC(=O)[C@@H]1C[C@@H]1c1cc2c(cc1OC)OCc1c(C(=O)N(C)C(C)(C)C)nn(-c3cc(Cl)cc(Cl)c3)c1-2` (racemic) [Compound 197, (1RS,2SR)-ethyl 2-(3-(tert-butyl(methyl)carbamoyl)-1-(3,5-dichlorophenyl)-7-methoxy-1,4-dihydrochromeno[4,3-c]pyrazol-8-yl)cyclopropanecarboxylate], the EC50 in assay [1] was more than 500 nM; on FSHR, 10 to 100 nM.
For `COc1cc2c(cc1-c1cccnc1C#N)-c1c(c(C(=O)N(C)C(C)(C)C)nn1-c1cc(Cl)cc(Cl)c1)CO2` [Compound 14, N-tert-butyl-8-(2-cyanopyridin-3-yl)-1-(3,5-dichlorophenyl)-7-methoxy-N-methyl-1,4-dihydrochromeno[4,3-c]pyrazole-3-carboxamide], the figures for the EC50 (in assay [1]; on FSHR) were 10 to 100 nM and less than 10 nM, respectively.
For `COc1cc2c(cc1-c1cnn(CC(N)=O)c1)-c1c(c(C(=O)N3CC[S+]([O-])CC3(C)C)nn1-c1cc(F)cc(F)c1)CO2` (stereo not drawn) [Compound 71], the EC50 in assay [1] is 101 to 500 nM; on FSHR, 10 to 100 nM.
Consider `COc1cc2c(cc1-c1cncc(NC(N)=O)c1)-c1c(c(C(=O)N(C)C(C)(C)C)nn1-c1cc(Cl)cc(Cl)c1)CO2` [Compound 183, N-tert-butyl-1-(3,5-dichlorophenyl)-7-methoxy-N-methyl-8-(5-ureidopyridin-3-yl)-1,4-dihydrochromeno[4,3-c]pyrazole-3-carboxamide], for which the EC50 in assay [1] was 10 to 100 nM; on FSHR, less than 10 nM.
For the compound `COc1cc2c(cc1-c1ccn(C)n1)-c1c(c(C(=O)N3CCOCC3(C)C)nn1-c1cc(Cl)cc(Cl)c1)CO2` [Compound 9, (1-(3,5-dichlorophenyl)-7-methoxy-8-(1-methyl-1H-pyrazol-3-yl)-1,4-dihydrochromeno[4,3-c]pyrazol-3-yl)(3,3-dimethylmorpholino)methanone], the EC50 in assay [1] is 101 to 500 nM; on FSHR, less than 10 nM.
Consider `COc1cc(OC)cc(-n2nc(C(=O)N(C)C(C)(C)C)c3c2-c2cc(-c4ccccn4)c(OC)cc2OC3)c1` [Compound 46, N-tert-butyl-1-(3,5-dimethoxyphenyl)-7-methoxy-N-methyl-8-(pyridin-2-yl)-1,4-dihydrochromeno[4,3-c]pyrazole-3-carboxamide], for which the EC50 in assay [1] was in the range of 101 to 500 nM; at FSHR, 10 to 100 nM.
The matching figures for `COc1cc(Cl)cc(-n2nc(C(=O)N3CCOCC3(C)C)c3c2-c2cc(-c4ccn(C)n4)c(OC)cc2OC3)c1` [Compound 33, (1-(3-chloro-5-methoxyphenyl)-7-methoxy-8-(1-methyl-1H-pyrazol-3-yl)-1,4-dihydrochromeno[4,3-c]pyrazol-3-yl)(3,3-dimethylmorpholino)methanone]: 10 to 100 nM and less than 10 nM.
The matching figures for `COc1cc2c(cc1-c1ncnn1C)-c1c(c(C(=O)N(C)C(C)(C)C)nn1-c1ccsc1)CO2` [Compound 208]: more than 500 nM and 10 to 100 nM.
In the case of `COc1cc2c(cc1-c1ccn(C)n1)-c1c(c(C(=O)N3CCN(C#N)CC3(C)C)nn1-c1ccsc1)CO2` [Compound 184, 4-(7-methoxy-8-(1-methyl-1H-pyrazol-3-yl)-1-(thiophen-3-yl)-1,4-dihydrochromeno[4,3-c]pyrazole-3-carbonyl)-3,3-dimethylpiperazine-1-carbonitrile], the EC50 in assay [1] was 10 to 100 nM; at FSHR, less than 10 nM.
On to `CNC(=O)Cn1nc(C)c(-c2cc3c(cc2OC)OCc2c(C(=O)N(C)C(C)(C)C)nn(-c4cc(Cl)cc(Cl)c4)c2-3)c1C` [Compound 140], for which the EC50 is 101 to 500 nM in assay [1] and less than 10 nM on FSHR.
As to `COc1cc2c(cc1-c1cncc(C(N)=O)c1)-c1c(c(C(=O)N3CCOCC3(C)C)nn1-c1cc(F)cc(F)c1)CO2` [Compound 164], the EC50 (in assay [1]; at FSHR) was less than 10 nM each time.
With `COc1cc2c(cc1-c1cccnc1F)-c1c(c(C(=O)N(CCO)C(C)(C)C)nn1-c1cc(Cl)cc(Cl)c1)CO2` [Compound 123, N-tert-butyl-1-(3,5-dichlorophenyl)-8-(2-fluoropyridin-3-yl)-N-(2-hydroxyethyl)-7-methoxy-1,4-dihydrochromeno[4,3-c]pyrazole-3-carboxamide], the EC50 in assay [1] was 10 to 100 nM; on FSHR, less than 10 nM.
Consider `COc1cc2c(cc1-c1nn(C)cc1Cl)-c1c(c(C(=O)N3CCOCC3(C)C)nn1-c1cc(F)cc(F)c1)CO2` [Compound 151], for which the EC50 was 10 to 100 nM in assay [1] and less than 10 nM on FSHR.
The corresponding values for `COc1cc2c(cc1-c1nc[nH]n1)-c1c(c(C(=O)N(C)C(C)(C)C)nn1-c1ccsc1)CO2` [Compound 207, N-tert-butyl-7-methoxy-N-methyl-1-(thiophen-3-yl)-8-(1H-1,2,4-triazol-3-yl)-1,4-dihydrochromeno[4,3-c]pyrazole-3-carboxamide] are 101 to 500 nM and less than 10 nM.
For `COc1cc(OC)cc(-n2nc(C(=O)N(C)C(C)(C)C)c3c2-c2cc(-c4nn(C)cc4C#N)c(OC)cc2OC3)c1` [Compound 146, N-tert-butyl-8-(4-cyano-1-methyl-1H-pyrazol-3-yl)-1-(3,5-dimethoxyphenyl)-7-methoxy-N-methyl-1,4-dihydrochromeno[4,3-c]pyrazole-3-carboxamide], the EC50 in assay [1] is 101 to 500 nM; on FSHR, less than 10 nM.
On to `COc1cc(OC)cc(-n2nc(C(=O)N(C)C(C)(C)C)c3c2-c2cc(-c4cc[nH]c4)c(OC)cc2OC3)c1` [Compound 38], for which the figures for the concentration for a half-maximal effect (EC50) (in assay [1]; on FSHR) were 101 to 500 nM and 10 to 100 nM, respectively.
For `COc1cc2c(cc1-c1cncc(C(N)=O)c1C)-c1c(c(C(=O)N(C)C(C)(C)C#N)nn1-c1cc(F)cc(F)c1)CO2` [Compound 119, 8-(5-carbamoyl-4-methylpyridin-3-yl)-N-(2-cyanopropan-2-yl)-1-(3,5-difluorophenyl)-7-methoxy-N-methyl-1,4-dihydrochromeno[4,3-c]pyrazole-3-carboxamide], the EC50 in assay [1] is 101 to 500 nM; on FSHR, less than 10 nM.
`COc1cc2c(cc1-c1cc(C)cnc1F)-c1c(c(C(=O)N(C)C(C)(C)C)nn1-c1ccsc1)CO2` [Compound 62, N-tert-butyl-8-(2-fluoro-5-methylpyridin-3-yl)-7-methoxy-N-methyl-1-(thiophen-3-yl)-1,4-dihydrochromeno[4,3-c]pyrazole-3-carboxamide]: the half-maximal effective concentration (EC50) in assay [1] is 10 to 100 nM; at FSHR, less than 10 nM.
